This passage reports IC50 results from patent US8946439B2, “Amide compounds, compositions and uses thereof” (Evotec AG, priority 2008, dated 2015).

In one assay the target is T1, hP2X2/3H (Homo sapiens, UniProt P56373+Q9UBL9).
T1 construct: expressed in transfected cells; host or cells: e.g. HEK293 or 1321N1
T1 sequence (Q9UBL9 1-471): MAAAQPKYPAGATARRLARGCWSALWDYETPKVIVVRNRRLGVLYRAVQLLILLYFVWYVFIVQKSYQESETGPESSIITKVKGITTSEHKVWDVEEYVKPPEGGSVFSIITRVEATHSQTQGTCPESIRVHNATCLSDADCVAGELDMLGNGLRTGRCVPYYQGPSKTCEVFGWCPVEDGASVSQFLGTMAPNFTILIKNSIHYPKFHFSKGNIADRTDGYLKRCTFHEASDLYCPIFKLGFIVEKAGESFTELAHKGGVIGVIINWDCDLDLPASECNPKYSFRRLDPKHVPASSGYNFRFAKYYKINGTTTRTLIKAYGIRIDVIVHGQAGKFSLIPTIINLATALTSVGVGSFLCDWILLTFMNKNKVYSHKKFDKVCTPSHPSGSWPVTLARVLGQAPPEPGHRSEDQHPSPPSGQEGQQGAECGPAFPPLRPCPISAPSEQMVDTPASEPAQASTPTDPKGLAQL
T1 sequence (P56373 1-397): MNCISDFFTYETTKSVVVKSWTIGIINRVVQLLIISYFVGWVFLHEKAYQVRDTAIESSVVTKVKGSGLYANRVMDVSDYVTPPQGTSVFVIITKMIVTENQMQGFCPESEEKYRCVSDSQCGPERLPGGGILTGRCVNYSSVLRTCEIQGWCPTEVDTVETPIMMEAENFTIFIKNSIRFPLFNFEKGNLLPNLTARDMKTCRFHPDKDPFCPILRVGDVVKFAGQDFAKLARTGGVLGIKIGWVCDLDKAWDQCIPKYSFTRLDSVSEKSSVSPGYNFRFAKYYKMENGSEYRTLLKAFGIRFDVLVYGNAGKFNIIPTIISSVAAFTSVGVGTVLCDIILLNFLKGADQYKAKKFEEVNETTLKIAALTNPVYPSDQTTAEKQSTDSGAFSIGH
Description: Calcium uptake assay (P2X antagonist assay), P2X2/3 heteromer. To be noted: hP2X2/3H. The class given is cell-based. The method, boiled down: (§1)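 Stably or transiently transfected HEK293 or 1321N1 cells; the heteromer is made by adding P2X3 to a P2X2-stable line, with heteromer function isolated pharmacologically. The peak-minus-baseline FLIPR calcium signal gives % inhibition and a 4-parameter-logistic IC50.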

The target of a further assay is T2, hP2X3 (Homo sapiens, UniProt P56373).
T2 construct: expressed in transfected cells; host or cells: e.g. HEK293 or 1321N1
T2 sequence (P56373 1-397): T1 sequence (P56373 1-397)
Description: Calcium uptake assay (P2X antagonist assay), P2X3 homomer. The class given is cell-based. To be noted: hP2X3. In outline:
as §1

[1] abbreviates: calcium uptake assay, read-out: IC50 hP2X2/3H (nM), Ca Influx.
The mark [2] stands for this setting: calcium uptake assay, read-out: IC50 hP2X3 (nM), Ca Influx.
Where [3] appears, read: Ca influx (calcium uptake assay), read-out: IC50 hP2X2/3H.
Setting [4] is: Ca influx (calcium uptake assay), read-out: IC50 hP2X3.

Read-outs that look alike come from different tables or passages of the source.

Regarding `Cc1ccc(-c2cc(C(=O)NCc3cnc(C)nc3)cc(C(=O)N3CCOCC3)c2)cc1` [Compound 24], the IC50 is 100 to 500 nM on hP2X2/3H (setting [1]) and less than 100 nM on hP2X3 (setting [2]).

`Cc1ccc(-c2cc(C(=O)N[C@@H](C)CO)cc(S(=O)(=O)CC(C)C)c2)cc1` [Compound 281]: the IC50 on hP2X2/3H (setting [3]) is more than 1000 nM; at hP2X3 (setting [4]) it was less than 100 nM.

Regarding `Cc1ccc(-c2cc(C(=O)N[C@H](C)c3cnc(C)nc3)cc(C(O)C(F)(F)F)c2)c(C#N)c1` (stereo partly shown) [Compound 353], the IC50 at hP2X2/3H (setting [3]) and on hP2X3 (setting [4]) was less than 100 nM each time.

Take `Cc1ccc(-c2cc(C(=O)NCc3ccc(C)nc3)cc(C(=O)N(C)C)c2)cc1` [Compound 166, N3,N3,4′-Trimethyl-N5-((6-methylpyridin-3-yl)methyl)biphenyl-3,5-dicarboxamide]: the IC50 is 100 to 500 nM on hP2X2/3H (setting [1]) and less than 100 nM at hP2X3 (setting [2]).

Consider `Cc1ccc(-c2cc(C(=O)NCc3ccc(C)nc3)cc(S(C)(=O)=O)c2)cc1` [Compound 58, 4′-Methyl-N-((6-methylpyridin-3-yl)methyl)-5-(methylsulfonyl)biphenyl-3-carboxamide], for which the IC50 on hP2X2/3H (setting [1]) and at hP2X3 (setting [2]) was less than 100 nM throughout.

Regarding `Cc1ccc(-c2cc(C(=O)NCc3ccc(Cl)cc3Cl)cc(S(C)(=O)=O)c2)nc1` [Compound 385], the IC50 at hP2X2/3H (setting [3]) and on hP2X3 (setting [4]) was 100 to 500 nM throughout.

As to `Cc1ccc(-c2cc(C(=O)N[C@H](C)c3cnc(C)nc3)cc(C(=O)N3CCN4CCCC4C3)c2)cc1` (stereo partly drawn) [Compound 191, 4′-Methyl-N—((R)-1-(2-methylpyrimidin-5-yl)ethyl)-5-(octahydropyrrolo[1,2-a]pyrazine-2-carbonyl)biphenyl-3-carboxamide], the IC50 on hP2X2/3H (setting [1]) and at hP2X3 (setting [2]) was less than 100 nM each time.

`Cc1ccc(-c2cc(C(=O)N[C@H](C)c3cnc(C)nc3)cc(C(O)c3ccccc3)c2)c(C#N)c1` (stereo partly shown) [Compound 278]: the IC50 at hP2X2/3H (setting [3]) and at hP2X3 (setting [4]) was less than 100 nM throughout.

As for `Cc1ccc(-c2cc(OC3CCOC3)cc(C(=O)N[C@H](C)c3cnc(C)nc3)c2)c(C#N)c1` (stereo partly shown) [Compound 358], the IC50 on hP2X2/3H (setting [3]) and on hP2X3 (setting [4]) was less than 100 nM throughout.

In the case of `Cc1ccc(-c2cc(C(=O)NCc3ccc(C)nc3)cc(C(=O)N3CCc4ccccc43)c2)cc1` [Compound 186], the figures for the IC50 on hP2X2/3H (setting [1]) and on hP2X3 (setting [2]) were less than 100 nM and 100 to 500 nM, respectively.

Consider `Cc1ccc(-c2cc(Oc3ccccn3)cc(C(=O)N[C@H](C)c3cnc(C)nc3)c2)cc1` [Compound 243], for which the values for the IC50 on hP2X2/3H (setting [3]) and on hP2X3 (setting [4]) were less than 100 nM and 100 to 500 nM, respectively.

As to `Cc1ccc(-c2cc(C(=O)NCc3ccc(C)nc3)cc(C(=O)N3CC[C@@H](O)C3)c2)cc1` [Compound 94, (R)-5-(3-Hydroxypyrrolidine-1-carbonyl)-4′-methyl-N-((6-methylpyridin-3-yl)methyl)biphenyl-3-carboxamide], the IC50 on hP2X2/3H (setting [1]) and at hP2X3 (setting [2]) was less than 100 nM each time.

For `Cc1ccc(-c2cc(Oc3nccs3)cc(C(=O)N[C@H](C)c3ccc(C)nc3)c2)c(C#N)c1` [Compound 255], the IC50 on hP2X2/3H (setting [3]) and on hP2X3 (setting [4]) was less than 100 nM throughout.

As to `Cc1ccc(-c2cc(C(=O)N[C@H](C)c3ccc(C)nc3)cc(C(O)C(F)(F)F)c2)c(C#N)c1` (stereo partly drawn) [Compound 295, 2′-Cyano-4′-methyl-N—((R)-1-(6-methylpyridin-3-yl)ethyl)-5-(2,2,2-trifluoro-1-hydroxyethyl)biphenyl-3-carboxamide], the IC50 at hP2X2/3H (setting [3]) and at hP2X3 (setting [4]) was less than 100 nM throughout.

As for `COCC(CO)Oc1cc(C(=O)N[C@H](C)c2ccc(C)nc2)cc(-c2ccc(C)cn2)c1` (stereo partly shown) [Compound 348], the IC50 at hP2X2/3H (setting [3]) and at hP2X3 (setting [4]) was less than 100 nM in each case.

Regarding `Cc1ccc(-c2cc(C(=O)N[C@H](C)c3cnc(C)c(Cl)c3)cc(C(=O)N3CCCC3)c2)cc1` [Compound 104], the IC50 on hP2X2/3H (setting [1]) was 100 to 500 nM; at hP2X3 (setting [2]) it was less than 100 nM.

Turning to `CCN(CC)C(=O)c1cc(C(=O)NCc2cnc(C)nc2)cc(-c2ccc(C)cc2)c1` [Compound 170], the IC50 was 100 to 500 nM at hP2X2/3H (setting [1]) and less than 100 nM at hP2X3 (setting [2]).

On to `Cc1ccc(-c2cc(OCC3CNCCO3)cc(C(=O)N[C@H](C)c3ccc(C)nc3)c2)cc1` (stereo partly shown) [Compound 325], for which the IC50 is 100 to 500 nM on hP2X2/3H (setting [3]) and less than 100 nM at hP2X3 (setting [4]).

In the case of `Cc1ccc(-c2cc(Oc3ncccn3)cc(C(=O)N[C@H](C)c3ccc(C)nc3)c2)c(C#N)c1` [Compound 246], the IC50 is 100 to 500 nM on hP2X2/3H (setting [3]) and less than 100 nM on hP2X3 (setting [4]).

`Cc1ccc(-c2cc(OC(C)CO)cc(C(=O)N[C@H](C)c3ccc(C)nc3)c2)c(C#N)c1` (stereo partly shown) [Compound 377]: the IC50 on hP2X2/3H (setting [3]) and at hP2X3 (setting [4]) was less than 100 nM each time.

Turning to `Cc1ccc(-c2cc(OC3CNCC3O)cc(C(=O)N[C@H](C)c3cnc(C)nc3)c2)nc1` (stereo partly shown) [Compound 355], the IC50 on hP2X2/3H (setting [3]) was more than 1000 nM; at hP2X3 (setting [4]), less than 100 nM.

With `Cc1ccc(-c2cc(C(=O)NCc3ccc(C(F)(F)F)c(F)c3)cc(C(=O)N3CCCC3)c2)nc1` [Compound 145], the IC50 at hP2X2/3H (setting [1]) and on hP2X3 (setting [2]) was 100 to 500 nM in each case.

For `Cc1ccc(-c2cc(C(=O)N[C@H](C)c3cnc(C)nc3)cc(C(=O)N3CC(O)C3)c2)cc1` [Compound 76], the IC50 on hP2X2/3H (setting [1]) and on hP2X3 (setting [2]) was less than 100 nM each time.

Take `Cc1ccc(-c2cc(C#N)cc(C(=O)NCc3ccc(C)nc3)c2)nc1` [Compound 160]: the IC50 on hP2X2/3H (setting [1]) was 501 to 1000 nM; at hP2X3 (setting [2]) it was 100 to 500 nM.

In the case of `Cc1ccc(-c2cc(Oc3ncccn3)cc(C(=O)N[C@H](C)c3ccc(C)nc3)c2)nc1` [Compound 272], the IC50 on hP2X2/3H (setting [3]) is 100 to 500 nM; on hP2X3 (setting [4]) it was less than 100 nM.

In the case of `Cc1ccc(-c2cc(S(=O)(=O)N3CCCC3)cc(C(=O)NCc3ccc(Cl)c(S(C)(=O)=O)c3)c2C)cc1` [Compound 66], the IC50 on hP2X2/3H (setting [1]) was more than 1000 nM; on hP2X3 (setting [2]), 100 to 500 nM.

Take `Cc1ccc(-c2cc(C(=O)N[C@H](C)c3ccc(C)nc3)cc(C(O)CO)c2)c(C#N)c1` (stereo partly shown) [Compound 298]: the IC50 on hP2X2/3H (setting [3]) and at hP2X3 (setting [4]) was less than 100 nM throughout.

`Cc1ccc(-c2cc(C(=O)NCc3ccc(C)nc3)cc(C(=O)N3CCC(N4CCOCC4)C3)c2)cc1` (stereo not shown) [Compound 86, 4′-Methyl-N-((6-methylpyridin-3-yl)methyl)-5-(3-morpholinopyrrolidine-1-carbonyl)biphenyl-3-carboxamide]: the IC50 at hP2X2/3H (setting [1]) and at hP2X3 (setting [2]) was 100 to 500 nM each time.

Regarding `Cc1ccc(-c2cc(C#N)cc(C(=O)NCc3ccc(C)nc3)c2)cc1` [Compound 153], the IC50 at hP2X2/3H (setting [1]) and on hP2X3 (setting [2]) was 100 to 500 nM each time.

`CCCS(=O)(=O)c1cc(C(=O)NCc2ccn3ccnc3c2)cc(-c2ccc(C)cc2)c1` [Compound 57]: the IC50 at hP2X2/3H (setting [1]) and on hP2X3 (setting [2]) was less than 100 nM in each case.

Regarding `Cc1ccc(-c2cc(C(=O)NCc3cnc(C)nc3)cc(C(=O)N3CC(F)(F)C3)c2)cc1` [Compound 17, 5-(3,3-Difluoroazetidine-1-carbonyl)-4′-methyl-N-((2-methylpyrimidin-5-yl)methyl)biphenyl-3-carboxamide], the IC50 on hP2X2/3H (setting [1]) and at hP2X3 (setting [2]) was less than 100 nM in each case.

`COCC(C)Oc1cc(C(=O)N[C@H](C)c2ccc(C)nc2)cc(-c2ccc(C)cn2)c1` (stereo partly shown) [Compound 328]: the IC50 on hP2X2/3H (setting [3]) and on hP2X3 (setting [4]) was less than 100 nM throughout.

For `Cc1ccc(-c2cc(C(=O)N[C@H](CO)c3ccc(C(F)F)nc3)cc(S(C)(=O)=O)c2)cc1` [Compound 207], the IC50 at hP2X2/3H (setting [3]) and on hP2X3 (setting [4]) was less than 100 nM throughout.

`Cc1ccc(-c2cc(C(=O)NCc3ccc(C)nc3)cc(C(O)CO)c2)c(C#N)c1` (stereo not shown) [Compound 297, 2′-Cyano-5-(1,2-dihydroxyethyl)-4′-methyl-N-((6-methylpyridin-3-yl)methyl)biphenyl-3-carboxamide]: the IC50 at hP2X2/3H (setting [3]) was 100 to 500 nM; at hP2X3 (setting [4]), less than 100 nM.

Consider `Cc1ccc(-c2cc(C(=O)NCc3ncc(C(F)(F)F)cc3Cl)cc(C(=O)N3CC(O)C3)c2)cc1` [Compound 129], for which the IC50 at hP2X2/3H (setting [1]) and at hP2X3 (setting [2]) was less than 100 nM throughout.

`Cc1ccc(-c2cc(C(=O)NCc3ccc(C)nc3)cc(C(=O)N3[C@H](C)CC[C@H]3C)c2)cc1` [Compound 195]: the IC50 at hP2X2/3H (setting [1]) and at hP2X3 (setting [2]) was less than 100 nM throughout.

As for `Cc1ccc(-c2cc(C(=O)NCc3ccc(C)nc3)cc(C(=O)N3CCCC3)c2)c(C#N)c1` [Compound 61], the IC50 at hP2X2/3H (setting [1]) and at hP2X3 (setting [2]) was less than 100 nM in each case.

With `Cc1ccc(-c2cc(C(=O)NCc3ccc(C)nc3)cc(C(=O)N3CC[C@@H](NC(=O)OC(C)(C)C)C3)c2)cc1` [Compound 100], the IC50 on hP2X2/3H (setting [1]) was 100 to 500 nM; at hP2X3 (setting [2]) it was 501 to 1000 nM.
